Measured values from patent US20120208776A1 (priority 2002, published 2012).
Where “and” joins values, the source holds several entries; their conditions need not be identical. Equal entries are not always repeated. Where two headings read alike, the source gives them in different places. Marks after values point to notes of the source that are not given here.

Legend:
Na^+-K^+-ATPase = assay: Enzymatic assay of adenosine 5′-triphosphatase; assay type: biochemical; conditions: 20 μM
Procedure: Enzymatic assay of adenosine 5′-triphosphatase. The enzymatic assay of ATPase (adenosine 5′-triphosphatase, EC 3.6.1.3) followed the Sigma Prod. […] [P] was determined by the Taussky-Shorr method.

MDA-MB-453 cells [1] = assay type: cell-based, human
Procedure: RNA was isolated as previously described. […] Total RNA (8 μg) was reverse transcribed with T7-(dT)24 primer and Super Script III reverse transcriptase (Invitrogen). After purification, cDNA was in vitro transcribed into biotin labeled antisense cRNA with the BioArray high yield RNA transcript labeling kit (Enzo Life Sciences; Farmingdale, N.Y.), according to a modified Affymetrix protocol. cRNA (15 μg) was fragmented into the final probe and hybridized to human U133A 2.0 gene chips (Affymetrix, Inc.; Santa Clara, Calif.), comprised of more than 22,000 probe sets. The Institute for Cancer Genetics Core Facility at the Columbia Genome Center performed the hybridization.
Two or three replicates of each microarray were performed to determine intrasample variation. To bolster the robustness of the analysis, the effects of 4 doses for 2 time periods were examined.
All analyses were performed using the AffyLimmaGUI package in the open-source Bioconductor suite, as previously described. […] Variability is reported in terms of a p-value representing the probability that differences between treated and untreated could occur by chance. The p-value takes into account both the variability within groups (in this case the groups are treated and control) and the variability between groups.

[2] = heart failure; cited from earlier work
cyclin D1 promoter = assay: Cyclin D1 reporter assay (luciferase); assay type: cell-based, human; conditions: MDA-MB-453, 24 h
Procedure: (§1) The cyclin D1 promoter luciferase reporter plasmid, 1745CD1LUC, was prepared by Dr. R. Pestell (Albert Einstein Cancer Center, New York, N.Y.). The method used for transient transfection reporter assays was previously described (Soh et al., Novel roles of specific isoforms of protein kinase C in activation of the c-fos serum response element. Molecular and Cellular Biology, 19:1313-24, 1999). Using lipofectin, triplicate samples of MDA-MB-453 breast cancer cells (1×10^5 cells in 35-mm plates) were co-transfected using DNA of the indicated reporter plasmid (1 μg) and the β-gal plasmid as an internal control (10 μg of the pCMV-b-gal plasmid) in opti-MEM 1 medium (Life Technologies, Inc.). After 24 h, the medium was replaced with serum-free medium containing the indicated concentrations of actein. After 24 h, cells were harvested, and luciferase activity was determined with the luciferase assay system (Promega Corp. Madison, Wis.); β-gal activities were determined with the β-gal enzyme assay system (Promega). Luciferase activities were normalized to β-gal activities, to correct for differences in transfection efficiency.

[3] = test system: cyclin D1 and p21 mRNA in MDA-MB-453 cells; assay: RT-PCR of mRNA; assay type: cell-based, human
Procedure: MDA-MB-453 cells were treated with DMSO or actein for 3, 10, or 24 h. RNA was isolated and analyzed by RT-PCR, using primers for cyclin D1 and actin (control). The staining intensities of the visualized blots were quantified using NIH image software. The relative band intensities were determined by comparing treated samples with untreated controls. These values were then normalized (fold), using actin as an internal control.
MDA-MB-453 cells were treated with DMSO or actein for 3, 10, or 24 h. RNA was isolated and analyzed by RT-PCR, using primers for cyclin D1 and actin (control). The staining intensities of the visualized blots were quantified using NIH image software. The relative band intensities were determined by comparing treated samples with untreated controls. These values were then normalized (fold), using β-actin as an internal control.

[4] = test system: cyclin D1 mRNA in MCF7 cells; assay: RT-PCR of mRNA; assay type: cell-based, human
Procedure: FIG. 13 illustrates the effects of actein on cyclin D1 mRNA in MCF7 cells (RT-PCR). MCF7 cells were treated with DMSO or actein for 3, 10, or 24 h. RNA was isolated and analyzed by RT-PCR, using primers for cyclin D1 and actin (control). The staining intensities of the visualized blots were quantified using NIH image software. The relative band intensities were determined by comparing treated samples with untreated controls. These values were then normalized (fold), using β-actin as an internal control.

[5] = test system: HepG2 p53 positive human liver cancer cells; assay: MTT proliferation assay; assay type: cell-based
MDA-MB-453 cells [6] = assay: Combination with chemotherapy agents, cell count, combination index (CI); assay type: cell-based, human
[7] = test system: rat liver gene expression
NF-κB promoter = assay: NF-κB reporter assay (luciferase); assay type: cell-based, human; conditions: MDA-MB-453, 24 h
Procedure: as §1
NF-κB reporter assay. The NE-κB promoter luciferase reporter plasmid was from Dr. Jae Won Soh. The method for transient transfection reporter assays was as previously described.

[8] = rat liver, actein 35.7 mg/kg, 6 hours, vs control
[9] = rat liver, actein 35.7 mg/kg, 24 hours, vs control

C[C@H]1O[C@@H](O[C@H]2[C@@H](O)C[C@H](O[C@H]3[C@@H](O)C[C@H](O[C@H]4CC[C@@]5(C)[C@H](CC[C@@H]6[C@@H]5CC[C@]5(C)[C@@H](C7=CC(=O)OC7)CC[C@]65O)C4)O[C@@H]3C)O[C@@H]2C)C[C@H](O)[C@@H]1O [digitoxin]
percent inhibition of in vitro Na^+-K^+-ATPase activity (Na^+-K^+-ATPase): 35.2%
number of genes with significantly altered expression (MDA-MB-453 cells [1]; digitoxin 20 ng/ml, 24 hours): 22
number of genes altered (MDA-MB-453 cells [1]; digitoxin 0.1 μg/mL, 6 hours): 2
number of genes altered (MDA-MB-453 cells [1]; digitoxin 0.1 μg/mL, 24 hours): 8
number of genes altered (MDA-MB-453 cells [1]; digitoxin 0.2 μg/mL, 6 hours): 6
number of genes altered (MDA-MB-453 cells [1]; digitoxin 0.2 μg/mL, 24 hours): 88
number of genes altered (MDA-MB-453 cells [1]; digitoxin 1 μg/mL, 6 hours): 87
number of genes altered (MDA-MB-453 cells [1]; digitoxin 1 μg/mL, 24 hours): 1491
therapeutic plasma concentration [2]: greater than 10 ng/ml and > 13 nM

CC(=O)O[C@@H]1C[C@@]23C[C@@]24CC[C@H](O[C@@H]2OC[C@@H](O)[C@H](O)[C@H]2O)C(C)(C)[C@@H]4CC[C@H]3[C@]2(C)C[C@@H]3O[C@]4(C[C@@H](C)[C@@H]3[C@@]12C)O[C@H](O)[C@@]1(C)O[C@@H]41 [actein]
cyclin D1 promoter activity (cyclin D1 promoter; 20 μg/ml): 0.87 fold
cyclin D1 promoter activity (cyclin D1 promoter; 40 μg/ml): 0.093 fold
cyclin D1 mRNA (RT-PCR) ([3]; 3 h, 20 μg/ml): 0.88 fold
cyclin D1 mRNA (RT-PCR) ([3]; 3 h, 40 μg/ml): 1 fold
cyclin D1 mRNA (RT-PCR) ([3]; 10 h, 20 μg/ml): 1.18 fold
cyclin D1 mRNA (RT-PCR) ([3]; 10 h, 40 μg/ml): 1.02 fold
cyclin D1 mRNA (RT-PCR) ([3]; 24 h, 20 μg/ml): 0.98 fold
cyclin D1 mRNA (RT-PCR) ([3]; 24 h, 40 μg/ml): 0.56 fold
cyclin D1 mRNA (RT-PCR) ([4]; 3 h, 20 μg/ml): 0.91 fold
cyclin D1 mRNA (RT-PCR) ([4]; 3 h, 40 μg/ml): 0.94 fold
cyclin D1 mRNA (RT-PCR) ([4]; 10 h, 20 μg/ml): 1.1 fold
cyclin D1 mRNA (RT-PCR) ([4]; 10 h, 40 μg/ml): 0.93 fold
cyclin D1 mRNA (RT-PCR) ([4]; 24 h, 20 μg/ml): 0.84 fold
cyclin D1 mRNA (RT-PCR) ([4]; 24 h, 40 μg/ml): 0.66 fold
IC50 [5]: 27 µg/mL and 40 µM
number of viable cells, average (MDA-MB-453 cells [6]; actein 1): 148202.7
number of viable cells, average (MDA-MB-453 cells [6]; actein 10): 106747.3
number of viable cells, average (MDA-MB-453 cells [6]; actein .1 (μg/ml), 96 h): 174798.3
ATP synthase expression, fold-change (log) ([7]; actein 35.7 mg/kg, 6 hours): −0.05
number of genes with significant change (p<0.05) in transcription level ([7]; actein 35.7 mg/kg, 6 hours): 297
erythropoietin expression, fold-change (log) ([7]; actein 35.7 mg/kg, 6 hours, rat liver): −0.22
C4BP expression, fold-change (log) ([7]; actein 35.7 mg/kg, 24 hours): 0.17
CXCL1 expression, fold-change (log) ([7]; actein 35.7 mg/kg, 24 hours): 0.44
FDPS expression, fold-change (log) ([7]; actein 35.7 mg/kg, 24 hours): 0.34
HMGCS expression, fold-change (log) ([7]; actein 35.7 mg/kg, 24 hours): 0.36
IPP expression, fold-change (log) ([7]; actein 35.7 mg/kg, 24 hours): 0.80
S100A9 expression, fold-change (log) ([7]; actein 35.7 mg/kg, 24 hours): 0.79
SCD1 expression, fold-change (log) ([7]; actein 35.7 mg/kg, 24 hours): −1.28
number of genes with significant change (p<0.05) in transcription level ([7]; actein 35.7 mg/kg, 24 hours): 1335
PPS, Hepatic inflammatory infiltrate, centrilobular signature ([7]; female, Sprague-Dawley, rat, in vivo, 6 h): 0.58
PPS, Hepatic inflammatory infiltrate, early gene expression signature ([7]; female, Sprague-Dawley, rat, in vivo, 24 h): 0.56
Fold-change (log) ATP5I (1387019_at) [7, 8]: −0.05*
Fold-change (log) EPO (1387308_at) [7, 8]: −0.22^†
Fold-change (log) ACOX1 (1367680_at) [7, 9]: −0.17*
Fold-change (log) C4BP, Complement component 4 binding protein, alpha (1369764_at) [7, 9]: 0.09*
Fold-change (log) C4BP, Complement component 4 binding protein, beta (1368695_at) [7, 9]: 0.17*
Fold-change (log) C5 (1383425_at) [7, 9]: 0.18*
Fold-change (log) CD44 (1387952_a_at) [7, 9]: 0.08*
Fold-change (log) CXCL1 (1387316_at) [7, 9]: 0.44*
Fold-change (log) FDPS (1367667_at) [7, 9]: 0.34*
Fold-change (log) HMGCS1 (1367932_at) [7, 9]: 0.36^†
Fold-change (log) IPP (1388872_at) [7, 9]: 0.80*
Fold-change (log) MG3PDH (1387670_at) [7, 9]: −0.38*
Fold-change (log) S100A9 (1387125_at) [7, 9]: 0.79*
Fold-change (log) SAP (1367804_at) [7, 9]: −0.04*
Fold-change (log) SCD1 (1370355_at) [7, 9]: −1.28*
NF-kB promoter activity (NF-κB promoter; 20 μg/ml): 1.59 fold
NF-kB promoter activity (NF-κB promoter; 40 μg/ml): 0.12 fold
